This note sets out measurements from US20080193563A1, “HARNESSING WNT SIGNALING TO RESTRICT HIV REPLICATION” (priority 2006, published 2008).

One experiment concerns HIV-Bal in HFA. As to the kind of experiment: Cytokine pre-stimulation and HIV-Bal replication in human fetal astrocytes, p24 ELISA. The experiment is classed as cell-based. Conditions: 24 h pre-stimulation, p24 day 7. The protocol: (§1) U87MG (A) and HFA (B) were pre-stimulated with increasing doses of either GM-CSF or IFNγ for 24 h followed by HIV-BAL infection for 24 hours. HIV replication was determined by measuring HIV p24 levels by ELISA seven days post-infection. The dotted line represents basal level of HIV infection of astrocytes without cytokine pre-treatment. Data is representative of three experiments performed in quadruplicate. Error bars represent standard deviations of the mean. Asterisks denote significant values (p<0.05) in comparison to untreated cultures as evaluated by analysis of variance.
(§2) To determine if pre-stimulation of astrocytes primes astrocytes, for productive HIV infection, U87MG and HFA were pre-treated for 24 hours with TNFγ, GM-CSF, or IFNγ at various concentrations (0-1000 ng/ml) then infected with HIV-Bal at 10 ng of HIV p24/1×10^6 cells for 24 hours. The cells were then washed extensively or trypsinized to remove bound virus and propagated in the presence of the respective cytokine concentration. HIV infection was monitored by p24 ELISA seven days post-infection. […]
(§3) IFN-γ Treatment and HIV Infection. […] HIV infection was monitored at day 7 postinfection by measuring p24 levels by conventional enzyme-linked immunosorbent assay (ELISA) (National Cancer Institute, Frederick, Md.).

For experiment [1], the system named is CD4, hMR, CCR1, D6 on U87MG. The experiment in a line: HIV receptor and chemokine co-receptor expression on U87MG by flow cytometry. The experiment is classed as cell-based, human. As to the method: U87MG (A) and HFA (B) were left untreated or treated GM-CSF (50 ng/ml) or IFNγ (100 ng/ml) for 24 h. Expression of receptors on the x-axis was measured by flow cytometry. Isotype refers to mouse IgG. Data is representative of three experiments. Error bars represent standard deviation of the mean. (C). IFNγ up-regulates D6 on U87MG cells. U87MG were left untreated or treated with IFNγ. After 3 days, the cells were immunostained with anti-D6 or isotype antibodies. The first histogram (peak) represents isotype control; the dark shaded histogram represents untreated cultures, and the third histogram (peak) represents IFNγ-treated cultures. Data is typical of quadruplet experiments.
Because IFNγ was a potent cytokine in inducing HIV infection of astrocytes, it was determined whether IFNγ treatment modulated key HIV receptors CD4, human mannose receptor D6 and co-receptors (CCR1, CCR2, CCR3, CXCR4, and CCR5) for HIV infection. U87MG is human mannose receptor (hMR) […] (FIG. 5). However, hMR was not detected on HFA, which may be regulated by the differentiation stage of the HFA (FIG. 5 (B)). CD4 and hMR expression in both U87MG and HFA was not augmented by IFNγ or GM-CSF (FIG. 5(A)-(B)). […] HFA were positive for CXCR4 (12%), but its expression was not augmented by GM-CSF or IFNγ treatment (FIG. 5B). IFNγ was reported to enhance CXCR4 and CCR5 expression on simian adult astrocytes, which is in contrast to data on human fetal astrocytes highlighting a discrepancy between simian adult and human fetal astrocytes. […] Infection of U87MG and HFA with a T-tropic isolate (IIIB), while it was productive, was not enhanced by cytokine pre-treatment. This may be a consequence of the laboratory adapted HIV IIIB, therefore primary T-tropic or dual tropic strains may still be responsive to IFNγ pre-treatment of astrocytes. Recently, the CC chemokine receptor D6 was identified as a functional co-receptor for primary HIV infection of astrocytes.
On the technique in general: In flow cytometry, cells or beads pass a laser one at a time.

A further experiment relates to HIV-Bal in U87MG. As to the kind of experiment: Cytokine pre-stimulation and HIV-Bal replication in U87MG, p24 ELISA. The experiment is classed as cell-based. Conditions: 24 h pre-stimulation, 0-1000 ng/ml, p24 day 7. The protocol: as §1, §2, §3
A general note: In an ELISA, binding on a coated surface is turned into a signal by an enzyme label.

Experiment [2] concerns IFNγ, GM-CSF and TNFγ receptors on U87MG. The experiment in a line: Cytokine receptor expression on U87MG by flow cytometry. The experiment is classed as cell-based, human. Particulars: 24-hour treatment. As to the method:
(§4) U87MG (A) or HFA (B) were left untreated or treated with GM-CSF (50 ng/ml), IFNγ100 ng/ml) or TNFγ100 ng/ml). […] Percent expression of GM-CSF receptor (R), IFNγR, and TNFγR was measured 24 hours post-stimulation by flow cytometry. Data is representative of three experiments. Error bars represent standard deviations of the mean.
(§5) Prior to evaluating if GM-CSF, IFNγ, and TNFγ can augment HIV replication of astrocytes, a question was whether U87MG and HFA express the respective cytokine receptors. U87MG and HFA were treated with or without the respective cytokine for 24 hours and cytokine receptor expression was evaluated by flow cytometry. Approximately 35% of U87MG expressed the IFNγ receptor and a low level of GM-CSF and TNFγ receptors (<8%; FIG. 3A). […] Untreated HFA expressed only low levels of IFNγ receptor (6%) and this expression was abrogated with IFNγ treatment. GM-CSF and TNFγ receptors were not expressed on HFA.

The subject of another experiment is IFNγ receptor on HFA. As to the kind of experiment: Cytokine receptor expression on HFA by flow cytometry. The experiment is classed as cell-based, human. Conditions: untreated 6%. As to the method:
as §4, §5

Regarding “IFNγ: cytokine secreted by lymphocytes, activated microglia and astrocytes; used to prime astrocytes”, the “Induction of HIV replication” value in the experiment on HIV-Bal in HFA is 2 fold. In experiment [1], the “CD4 and hMR expression” value is given as “not augmented”. For the same substance, the “Up-regulation of CCR1 expression” value in experiment [1] (24 h treatment) is 4 fold. Besides, the “Up-regulation of D6 expression” value in experiment [1] (3 days) was determined as 6 fold. In addition, in the experiment with HIV-Bal in U87MG, the “Maximal induction of HIV replication vs untreated/infected cultures” value turned out to be 10 fold. In experiment [2], the “Down-regulation of IFNγ receptor expression” value is 2 fold. Moreover, the “IFNγ receptor expression after treatment” value was “approximately 15%” in experiment [2] (untreated approximately 35%) and “abrogated” with IFNγ receptor on HFA.
